19 compounds from US9296755B2, “3,4-dihydro-1H-pyrimido[1,6-a]pyrimidin-6(2H)-one compounds and their therapeutic applications” (GlaxoSmithKline Intellectual Property Development Limited, priority 2013, dated 2016) can be followed below.

The target of test [1] is T1, Lp-PLA2 in human plasma (Homo sapiens, UniProt Q13093).
T1 construct: from tissue; host or cells: pooled human plasma
T1 sequence (Q13093 22-441): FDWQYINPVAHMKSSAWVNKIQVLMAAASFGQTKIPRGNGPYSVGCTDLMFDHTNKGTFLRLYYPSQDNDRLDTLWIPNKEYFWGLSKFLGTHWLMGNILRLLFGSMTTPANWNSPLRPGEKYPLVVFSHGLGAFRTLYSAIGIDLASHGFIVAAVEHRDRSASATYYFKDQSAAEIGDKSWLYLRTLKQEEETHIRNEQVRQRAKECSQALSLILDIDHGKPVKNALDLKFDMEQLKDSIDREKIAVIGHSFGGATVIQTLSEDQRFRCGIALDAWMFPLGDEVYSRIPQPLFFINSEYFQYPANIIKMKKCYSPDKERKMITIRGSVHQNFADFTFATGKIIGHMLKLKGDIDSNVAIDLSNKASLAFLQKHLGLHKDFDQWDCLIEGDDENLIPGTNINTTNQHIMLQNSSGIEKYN
The test can be described thus: Lp-PLA2 human plasma assay (Thio-PAF assay). The test is classed as biochemical. Conditions: pooled human plasma; read-out: pIC50 in the thio-PAF assay (converted). The source says: (3) Lipoprotein-Associated Phospholipase A2 (Lp-PLA2) Human Plasma Assay (Also Referred to as “Thio-PAF Assay”)
The human plasma assay utilizes a thioester analog of PAF (phosphatidylcholine), where hydrolysis yields to the formation of a phospholipid containing a free thiol group. The amount of thiol is quantitated continuously by reacting with CPM (7-diethylamino-3-(4′-maleimidylphenyl)-4-methylcoumarin), a maleimide which increases in fluoresence after Michael addition of thiols. This assay may detect the activity of Lp-PLA2 in human plasma, as determined by specific inhibition by Lp-PLA2 inhibitors.
The thio-PAF assay was run as a quenched 15 μL assay. Compounds source plate was prepared by making 1:3 (by volume) serial dilution of the compounds into pure DMSO on 384-well microplate. 0.01 μL of compounds on compound source plate were transferred to 384 well Greiner 784076 (black) low-volume plates by ECHO liquid dispenser. 8 μL pooled human plasma, which was previously aliquoted and frozen, was added. Plates were centrifuged for 10 sec at 500 rpm. After 30 minutes preincubation, 2 μL of substrate solution comprising 2.5 mM 2-thio-PAF [from ethanol stock], 32 μM CPM [from a DMSO stock] and 3.2 mM NEM (N-ethylmaleimide) [made fresh daily in DMSO] in assay buffer of 50 mM HEPES, pH 7.4, 150 mM NaCl, 1 mM CHAPS was added to 384 well Greiner 784076 (black) low-volume plates by BRAVO liquid handling station. After 2 mins, reaction was quenched with 5 μL of 5% aqueous trifluoroacetic acid (TFA). Plates were covered to protect from light and incubated for 40 min at room temperature. Plates were read at ex: 380/em: 485 using Envision microplate reader. PIC50 data, curve and QC analysis were conducted by using XLFit module in Excel.

For test [2], the target named is T2, recombinant human Lp-PLA2 (Homo sapiens, UniProt Q13093).
T2 sequence (Q13093 22-441): T1 sequence (Q13093 22-441)
The experiment in a line: Recombinant human Lp-PLA2 assay (rhLp-PLA2, PED6 assay). The test is classed as biochemical. Conditions: recombinant human Lp-PLA2, PED6 substrate; read-out: rhLp-PLA2 (PED6 assay) (pIC50) (converted). The text has this: (1) Recombinant Human Lp-PLA2 Assay (rhLp-PLA2) (Also Referred to as “PED6” Assay)
N-((6-(2,4-dinitrophenyl)amino)-hexanoyl)-2-(4,4-difluoro-5,7-dimethyl-4-bora-3a,4a-diaza-s-indacene-3-pentanoyl)-1-hexadecanoyl-sn-glycero-3-phosphoethanolamine, triethylammonium salt (PED6) is a commercially available fluorescently-labeled phospholipid, which is commercially available from Invitrogene and Molecular Probes. There is a quenching […] and a Bodipy fluorescein (FL) group in the sn2 position. Upon cleavage with Lp-PLA2, the Bodipy FL group is liberated and then may result in an increase in fluorescence. Inhibitors of Lp-PLA2 therefore prevent this cleavage and no fluorescent increase is observed.
The PED6 assay was run as an unquenched 10 μL assay. The source plate containing the compounds to be tested was prepared by making 1:3 (by volume) serial dilution of the compounds within DMSO on 384-well microplate. Then, 0.01 μL of the compounds on compound source plate were transferred into 384 well Greiner 784076 (black) plates using ECHO liquid dispenser. 5 μL of recombinant human Lp-PLA2 enzyme (4 nM (or 110 pM) rhLp-PLA2 in assay buffer of 50 mM HEPES, pH 7.4, 150 mM NaCl, 1 mM CHAPS) was added to each well of the plate. Plates were centrifuged for 10 sec at 500 rpm. After 30 minutes preincubation, 5 μL of substrate (4 μM (or 5 μM) PED6 [from 5 mM DMSO stock] in assay buffer of 50 mM HEPES, pH 7.4, 150 mM NaCl, 1 mM CHAPS) was added to 384 well Greiner 784076 (black) plates. Plates were centrifuged for 10 sec at 500 rpm. The plate was covered to protect it from light and incubated for 20 min at room temperature. The plates were read for fluorescence intensity at ex: 480/em: 540 using ViewLux microplate imager for Envision spectrofluroimeters. PIC50 data, curve and QC analysis was conducted by using XL fit module in Excel.

A value given as a limit tells only on which side of the number the result lay.

Regarding `O=C(CN1CCCn2c1cc(OCc1ccc(F)c(F)c1)nc2=O)N1CCC(F)CC1` [Example E23, 8-((3,4-difluorobenzyl)oxy)-1-(2-(4-fluoropiperidin-1-yl)-2-oxoethyl)-3,4-dihydro-1H-pyrimido[1,6-a]pyrimidin-6(2H)-one], the IC50 in test [1] was at most 100 nM; in test [2] it was 0.794 nM.
The like results for `N#Cc1cc(COc2cc3n(c(=O)n2)CCCN3C2CC2)ccc1Oc1ccc(Cl)c(C(F)(F)F)c1` [Example E11, 2-(4-chloro-3-(trifluoromethyl)phenoxy)-5-(((1-cyclopropyl-6-oxo-2,3,4,6-tetrahydro-1H-pyrimido[1,6-a]pyrimidin-8-yl)oxy)methyl)benzonitrile] were, in that order, at most 100 nM and 0.794 nM.
In the case of `O=C(CN1CCCn2c1cc(OCc1cc(F)c(F)c(F)c1)nc2=O)N1CCCC1` [Example E14, 1-(2-oxo-2-(pyrrolidin-1-yl)ethyl)-8-((3,4,5-trifluorobenzyl)oxy)-3,4-dihydro-1H-pyrimido[1,6-a]pyrimidin-6(2H)-one], in test [1], the IC50 is at most 100 nM.
With `COc1ccc(CN2CCCn3c2cc(OCc2ccc(F)c(F)c2)nc3=O)cc1` [Example E4, 8-((3,4-difluorobenzyl)oxy)-1-(4-methoxybenzyl)-3,4-dihydro-1H-pyrimido[1,6-a]pyrimidin-6(2H)-one], the IC50 in test [1] was at most 100 nM; in test [2], 1 nM.
The like results for `CCCNC(=O)CN1CCCn2c1cc(OCc1ccc(F)c(F)c1)nc2=O` [Example E13, 2-(8-((3,4-difluorobenzyl)oxy)-6-oxo-2,3,4,6-tetrahydro-1H-pyrimido[1,6-a]pyrimidin-1-yl)-N-propylacetamide] were, in that order, at most 100 nM and 3.16 nM.
The like results for `O=C(CN1CCCn2c1cc(OCc1ccc(F)c(F)c1)nc2=O)N1CCC(F)(F)CC1` [Example E20, 8-((3,4-difluorobenzyl)oxy)-1-(2-(4,4-difluoropiperidin-1-yl)-2-oxoethyl)-3,4-dihydro-1H-pyrimido[1,6-a]pyrimidin-6(2H)-one] were, in that order, at most 100 nM and 0.2 nM.
The like results for `CN1CCN(C(=O)CN2CCCn3c2cc(OCc2ccc(F)c(F)c2)nc3=O)CC1` [Example E19, 8-((3,4-difluorobenzyl)oxy)-1-(2-(4-methylpiperazin-1-yl)-2-oxoethyl)-3,4-dihydro-1H-pyrimido[1,6-a]pyrimidin-6(2H)-one] were, in that order, at most 100 nM and 0.316 nM.
Consider `O=C(CN1CCCn2c1cc(OCc1ccc(F)c(F)c1)nc2=O)N1CCOCC1` [Example E22, 8-((3,4-difluorobenzyl)oxy)-1-(2-morpholino-2-oxoethyl)-3,4-dihydro-H-pyrimido[1,6-a]pyrimidin-6(2H)-one], for which the results for the IC50 in test [1] and in test [2] were at most 100 nM and 0.794 nM, respectively.
The like results for `O=C(CN1CCCn2c1cc(OCc1cc(F)c(F)c(F)c1)nc2=O)N1CCOCC1` [Example E16, 1-(2-morpholino-2-oxoethyl)-8-((3,4,5-trifluorobenzyl)oxy)-3,4-dihydro-1H-pyrimido[1,6-a]pyrimidin-6(2H)-one] were, in that order, at most 100 nM and 0.501 nM.
Turning to `O=c1nc(OCc2ccc(F)c(F)c2)cc2n1CCCN2Cc1ccc(Cl)cc1` [Example E2, 1-(4-chlorobenzyl)-8-((3,4-difluorobenzyl)oxy)-3,4-dihydro-1H-pyrimido[1,6-a]pyrimidin-6(2H)-one], in test [2], the IC50 was 0.631 nM.
As for `O=C(CN1CCCn2c1cc(OCc1ccc(F)c(F)c1)nc2=O)N1CCCCC1` [Example E21, 8-((3,4-difluorobenzyl)oxy)-1-(2-oxo-2-(piperidin-1-yl)ethyl)-3,4-dihydro-H-pyrimido[1,6-a]pyrimidin-6(2H)-one], the IC50 in test [1] is at most 100 nM.
Same read-out and setting: the figure for `O=C(CN1CCCn2c1cc(OCc1ccc(F)c(F)c1)nc2=O)N1CCCC1` [Example E18, 8-((3,4-difluorobenzyl)oxy)-1-(2-oxo-2-(pyrrolidin-1-yl)ethyl)-3,4-dihydro-1H-pyrimido[1,6-a]pyrimidin-6(2H)-one] is at most 100 nM.
Still for that read-out and setting: for `O=c1nc(OCc2ccc(F)c(F)c2)cc2n1CCCN2Cc1ccc(F)cc1` [Example E3, 8-((3,4-difluorobenzyl)oxy)-1-(4-fluorobenzyl)-3,4-dihydro-1H-pyrimido[1,6-a]pyrimidin-6(2H)-one] the value was at most 100 nM; for `CNC(=O)CN1CCCn2c1cc(OCc1ccc(F)c(F)c1)nc2=O` [Example E17], at most 100 nM; for `O=c1nc(OCc2ccc(F)c(F)c2)cc2n1CCCN2Cc1ccccc1` [Example E1, 1-benzyl-8-((3,4-difluorobenzyl)oxy)-3,4-dihydro-1H-pyrimido[1,6-a]pyrimidin-6(2H)-one], at most 100 nM.
Turning to `O=c1nc(OCc2ccc(Oc3ccc(Cl)c(C(F)(F)F)c3)c(F)c2)cc2n1CCCN2C1CC1` [Example E8, 8-((4-(4-chloro-3-(trifluoromethyl)phenoxy)-3-fluorobenzyl)oxy)-1-cyclopropyl-3,4-dihydro-1H-pyrimido[1,6-a]pyrimidin-6(2H)-one], the IC50 in test [1] was at most 100 nM; in test [2] it was 0.501 nM.
`CCCNC(=O)CN1CCCn2c1cc(OCc1cc(F)c(F)c(F)c1)nc2=O` [Example E24, 2-(6-oxo-8-((3,4,5-trifluorobenzyl)oxy)-2,3,4,6-tetrahydro-1H-pyrimido[1,6-a]pyrimidin-1-yl)-N-propylacetamide]: the IC50 in test [1] was at most 100 nM.
On to `O=c1nc(OCc2ccc(Oc3cccc(C(F)(F)F)c3)c(F)c2)cc2n1CCCN2C1CC1` [Example E9, 1-cyclopropyl-8-((3-fluoro-4-(3-(trifluoromethyl)phenoxy)benzyl)oxy)-3,4-dihydro-1H-pyrimido[1,6-a]pyrimidin-6(2H)-one], for which the IC50 in test [1] is at most 100 nM.
With `COc1cccc(CN2CCCn3c2cc(OCc2ccc(F)c(F)c2)nc3=O)c1` [Example E6, 8-((3,4-difluorobenzyl)oxy)-1-(3-methoxybenzyl)-3,4-dihydro-1H-pyrimido[1,6-a]pyrimidin-6(2H)-one], the IC50 was at most 100 nM in test [1] and 1.58 nM in test [2].
